Data: ChEMBL document CHEMBL1132928 (J Med Chem, 2000)
The source made the active and inactive calls. The rule behind the calls is not given here. Where a SMILES comes first, the peptide text is derived from it. Bridges are numbered along the chain shown (N, C = ends).

How the values were obtained:
[1] = biological target: Adenylate cyclase type 5 (Rattus norvegicus) (UniProt Q04400); test: Percent stimulation ofcAMP production was measured in vitro using rat liver plasma membrane bioassay; assay type: functional, cell-free
Adenylate cyclase type 5 (Rattus norvegicus), sequence (Q04400 whole entry): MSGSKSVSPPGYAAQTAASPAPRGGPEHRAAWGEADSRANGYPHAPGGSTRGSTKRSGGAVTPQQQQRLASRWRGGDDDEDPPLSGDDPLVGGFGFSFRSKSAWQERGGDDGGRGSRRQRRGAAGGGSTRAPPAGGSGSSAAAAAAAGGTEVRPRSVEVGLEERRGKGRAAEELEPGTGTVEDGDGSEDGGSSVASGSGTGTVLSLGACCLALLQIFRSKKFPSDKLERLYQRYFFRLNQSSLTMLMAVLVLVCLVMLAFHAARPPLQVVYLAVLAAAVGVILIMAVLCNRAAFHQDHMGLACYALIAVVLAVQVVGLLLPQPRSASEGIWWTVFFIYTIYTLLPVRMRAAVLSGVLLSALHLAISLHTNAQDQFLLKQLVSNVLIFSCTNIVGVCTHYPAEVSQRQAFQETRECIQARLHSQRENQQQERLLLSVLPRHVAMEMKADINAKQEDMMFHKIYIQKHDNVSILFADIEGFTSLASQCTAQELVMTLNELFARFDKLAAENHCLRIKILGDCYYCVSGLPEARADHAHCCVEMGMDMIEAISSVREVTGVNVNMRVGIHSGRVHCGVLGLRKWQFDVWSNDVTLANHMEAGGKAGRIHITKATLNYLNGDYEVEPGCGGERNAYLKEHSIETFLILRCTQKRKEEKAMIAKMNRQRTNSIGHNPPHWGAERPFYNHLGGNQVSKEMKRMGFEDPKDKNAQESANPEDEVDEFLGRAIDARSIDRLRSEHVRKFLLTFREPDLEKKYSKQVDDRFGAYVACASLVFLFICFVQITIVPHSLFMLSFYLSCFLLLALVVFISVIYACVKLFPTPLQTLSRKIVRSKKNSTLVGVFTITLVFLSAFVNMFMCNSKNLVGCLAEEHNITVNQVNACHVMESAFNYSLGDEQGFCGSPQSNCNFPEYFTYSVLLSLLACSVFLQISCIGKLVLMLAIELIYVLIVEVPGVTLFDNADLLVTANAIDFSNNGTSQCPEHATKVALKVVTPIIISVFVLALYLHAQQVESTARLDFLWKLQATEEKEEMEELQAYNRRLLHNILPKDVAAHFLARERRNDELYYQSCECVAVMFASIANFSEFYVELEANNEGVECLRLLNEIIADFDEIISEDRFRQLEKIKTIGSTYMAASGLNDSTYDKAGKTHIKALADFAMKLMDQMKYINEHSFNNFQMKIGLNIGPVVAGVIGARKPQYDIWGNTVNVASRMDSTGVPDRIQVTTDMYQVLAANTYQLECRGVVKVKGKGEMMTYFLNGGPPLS

[2] = In vitro adenylate cyclase activity using rat liver plasma membrane bioassay; assay type: tissue-based
[3] = biological target: Glucagon receptor (Rattus norvegicus, UniProt P30082); test: In vitro receptor binding affinity (95% CL) using rat liver plasma membrane bioassay
Glucagon receptor, sequence (P30082 whole entry): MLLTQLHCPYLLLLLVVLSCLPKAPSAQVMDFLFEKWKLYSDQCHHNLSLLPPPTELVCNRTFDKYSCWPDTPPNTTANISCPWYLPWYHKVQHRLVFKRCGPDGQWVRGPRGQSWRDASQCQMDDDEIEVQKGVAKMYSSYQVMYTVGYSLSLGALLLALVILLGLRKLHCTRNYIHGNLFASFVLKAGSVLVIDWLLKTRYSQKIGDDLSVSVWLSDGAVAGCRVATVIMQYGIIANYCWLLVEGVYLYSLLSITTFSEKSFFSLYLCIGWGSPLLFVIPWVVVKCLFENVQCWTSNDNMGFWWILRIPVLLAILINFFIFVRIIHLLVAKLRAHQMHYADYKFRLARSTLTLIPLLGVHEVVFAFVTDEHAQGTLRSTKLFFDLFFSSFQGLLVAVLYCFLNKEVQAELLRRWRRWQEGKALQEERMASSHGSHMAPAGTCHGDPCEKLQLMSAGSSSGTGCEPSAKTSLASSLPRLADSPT

[4] = biological target: Glucagon receptor (Rattus norvegicus) (UniProt P30082); test: In vitro receptor binding affinity using rat liver plasma membrane bioassay; inactive
Glucagon receptor (Rattus norvegicus), sequence (P30082 whole entry): as above

[5] = In vitro adenylate cyclase activity using rat liver plasma membrane bioassay. Value is inactive up to 50 uM
[6] = biological target: Adenylate cyclase type 5 (Rattus norvegicus) (UniProt Q04400); test: Percent stimulation ofcAMP production was measured in vitro using rat liver plasma membrane bioassay; none; assay type: functional, cell-free
[7] = pA2 values were obtained from the dose / response plots; assay type: ADME

| Molecule | Max stimulation [1] [%] | Potency [2] [%] | IC50 [3] [nM] | also measured |
| --- | --- | --- | --- | --- |
| CSCC[C@@H](NC(=O)[C@@H](CC(C)C)NC(=O)[C@@H](Cc1c[nH]c2ccccc12)NC(=O)[C@@H](CCC(N)=O)NC(=O)[C@H](NC(=O)[C@H](Cc1ccccc1)NC(=O)[C@H]1CCC(=O)NCCCC[C@H](NC(=O)[C@H](CCCCN)NC(=O)[C@@H](CO)NC(=O)[C@@H](CC(=O)O)NC(=O)[C@@H](CC(C)C)NC(=O)[C@@H](Cc2ccc(O)cc2)NC(=O)[C@@H](CCCCN)NC(=O)[C@@H](CO)NC(=O)[C@@H](Cc2ccc(O)cc2)NC(=O)[C@@H](CC(=O)O)NC(=O)[C@@H](CO)NC(=O)[C@H](NC(=O)[C@@H](Cc2ccccc2)NC(=O)[C@H](NC(=O)CNC(=O)[C@@H](CCC(N)=O)NC(=O)[C@@H](CO)NC(=O)[C@H](N)Cc2c[nH]cn2)[C@H](C)O)[C@H](C)O)C(=O)N[C@@H](C)C(=O)N[C@H](CCC(N)=O)C(=O)N1)C(C)C)C(=O)N[C@H](CC(N)=O)C(=O)N[C@@H](C(N)=O)[C@H](C)O | 60 | 1.6 | – | – |
| CSCC[C@H](NC(=O)[C@H](CC(C)C)NC(=O)[C@H](Cc1c[nH]c2ccccc12)NC(=O)[C@H](CCC(N)=O)NC(=O)[C@@H](NC(=O)[C@H](Cc1ccccc1)NC(=O)[C@@H]1CCC(=O)NCCCC[C@H](NC(=O)[C@H](CCCCN)NC(=O)[C@H](CO)NC(=O)[C@H](CC(=O)O)NC(=O)[C@H](CC(C)C)NC(=O)[C@H](Cc2ccc(O)cc2)NC(=O)[C@H](CCCCN)NC(=O)[C@H](CO)NC(=O)[C@H](Cc2ccc(O)cc2)NC(=O)[C@H](CC(=O)O)NC(=O)[C@H](CO)NC(=O)[C@@H](NC(=O)[C@H](Cc2ccccc2)NC(=O)[C@@H](NC(=O)CNC(=O)[C@H](CCC(N)=O)NC(=O)[C@H](CO)NC(=O)[C@@H](N)Cc2c[nH]cn2)[C@@H](C)O)[C@@H](C)O)C(=O)N[C@@H](C)C(=O)N[C@@H](CCC(N)=O)C(=O)N1)C(C)C)C(=O)N[C@@H](CC(N)=O)C(=O)N[C@H](C(N)=O)[C@@H](C)O | – | – | 54 | EC50 [3]: 320 nM |
| CSCC[C@H](NC(=O)[C@H](CC(C)C)NC(=O)[C@H](Cc1c[nH]c2ccccc12)NC(=O)[C@H](CCC(N)=O)NC(=O)[C@@H](NC(=O)[C@@H](Cc1ccccc1)NC(=O)[C@@H]1CCC(=O)NCCCC[C@H](NC(=O)[C@H](CO)NC(=O)[C@@H](CC(=O)O)NC(=O)[C@@H](CC(C)C)NC(=O)[C@H](Cc2ccc(O)cc2)NC(=O)[C@H]2CCCCNC(=O)C[C@H](NC(=O)[C@H](CO)NC(=O)[C@H](NC(=O)[C@@H](Cc3ccccc3)NC(=O)[C@H](NC(=O)CNC(=O)[C@@H](CCC(N)=O)NC(=O)[C@@H](CO)NC(=O)[C@H](N)Cc3c[nH]cn3)[C@H](C)O)[C@H](C)O)C(=O)N[C@@H](Cc3ccc(O)cc3)C(=O)N[C@H](CO)C(=O)N2)C(=O)N[C@@H](CCCCN)C(=O)N[C@H](C)C(=O)N[C@@H](CCC(N)=O)C(=O)N1)C(C)C)C(=O)N[C@@H](CC(N)=O)C(=O)N[C@H](C(N)=O)[C@@H](C)O | – | – | – | IA [4]: inactive; Potency [5]: Inactive up to 50 uM; Max stimulation [6]: inactive |
| CSCC[C@H](NC(=O)[C@H](CC(C)C)NC(=O)[C@H](Cc1c[nH]c2ccccc12)NC(=O)[C@H](CCC(N)=O)NC(=O)[C@@H](NC(=O)[C@H](Cc1ccccc1)NC(=O)[C@H](CCC(=O)O)NC(=O)[C@H](CCC(N)=O)NC(=O)[C@H](C)NC(=O)[C@H](CCCCN)NC(=O)[C@H](CCCCN)NC(=O)[C@H](CO)NC(=O)[C@H](CC(=O)O)NC(=O)[C@H](CC(C)C)NC(=O)[C@H](Cc1ccc(O)cc1)NC(=O)[C@@H]1CCCCNC(=O)C[C@H](NC(=O)[C@H](CO)NC(=O)[C@@H](NC(=O)[C@H](Cc2ccccc2)NC(=O)[C@@H](NC(=O)CNC(=O)[C@H](CCC(N)=O)NC(=O)[C@H](CO)NC(=O)[C@@H](N)Cc2cnc[nH]2)[C@@H](C)O)[C@@H](C)O)C(=O)N[C@@H](Cc2ccc(O)cc2)C(=O)N[C@@H](CO)C(=O)N1)C(C)C)C(=O)N[C@@H](CC(N)=O)C(=O)N[C@H](C(N)=O)[C@@H](C)O (H-HSQGTFTSDYSKYLDSKKAQEFVQWLMNT-NH2; lactam 9-12) | – | – | 250 | pA2 [7]: 6.3 |
| GLUCAGON | 100 | 100 | – | – |
